Assay results from patent US10828349B2, “Treatment of microbial infections” (NATIONAL UNIVERSITY OF IRELAND, GALWAY, priority 2011, dated 2020).

Columns and labels:
[1] = test system: R550/2012 9026; test: antibiotic susceptibility of strain; type: cell-based, P. aeruginosa; parameters: key: ‘S’ denotes sensitive; ‘R’ denotes resistant or increased tolerance; conditions: R550/2012 9026, cystic fibrosis sputum isolate
Procedure: (§1) The susceptibility of a number of P. aeruginosa strains to the KI-Dose-150 composition was tested using the method described in Example 1. […] The relative susceptibilities are described in Table 4.

[2] = test system: R479/2012 9028; test: antibiotic susceptibility of strain; type: cell-based, P. aeruginosa; parameters: key: ‘S’ denotes sensitive; ‘R’ denotes resistant or increased tolerance; conditions: R479/2012 9028, cystic fibrosis sputum isolate
Procedure: as §1

[3] = test system: R480/2012 9029; test: antibiotic susceptibility of strain; type: cell-based, P. aeruginosa; parameters: key: ‘S’ denotes sensitive; ‘R’ denotes resistant or increased tolerance; conditions: R480/2012 9029, cystic fibrosis sputum isolate
Procedure: as §1

[4] = test system: R468/2012 9027; test: antibiotic susceptibility of strain; type: cell-based, P. aeruginosa; parameters: key: ‘S’ denotes sensitive; ‘R’ denotes resistant or increased tolerance; conditions: R468/2012 9027, cystic fibrosis sputum isolate
Procedure: as §1

[5] = test system: P. aeruginosa D12; test: antibiotic susceptibility of strain; type: cell-based; parameters: key: ‘S’ denotes sensitive; ‘R’ denotes resistant or increased tolerance
Procedure: as §1

[6] = test system: E. coli; conditions: constant substrate and LP; glucose/glucose oxidase doubly diluted; Mueller Hinton broth
Procedure: (§2) Secondly, an assay where the concentration of substrates was maintained constant, and the H2O2 levels were varied was employed.
This was aliquoted (150 μl) to a 96 well plate.

[7] = test system: E. coli; conditions: constant H2O2 (glucose oxidase) and LP; substrate 40 mg/ml doubly diluted; Mueller Hinton broth
Procedure: as §2
This was aliquoted (150 μl) to rows of a 96-well plate. […] The samples were doubly diluted as far as well 11, leaving well 12 as a control. The plate was incubated overnight at 37° C., and the optical density measured throughout.

[8] = test system: bacterial cells; test: lower limits of components of the enzymatic system, LB broth; type: cell-based; conditions: for level of required substrate: glucose and glucose oxidase levels sufficient
Procedure: The lower limits of each of the components in an enzymatic system, required to produce inhibitory biocidal concentrations of the antimicrobial agents, were determined (for example Table 1 and Table 5). To establish these lower limits for each component, minimum inhibitory concentrations for each were calculated using doubling dilutions on a 96-well plate, in a manner similar to that described in Example 1, wherein the concentration of the component of choice is lowered until no effect on growth is noted. […] At levels below this, there was insufficient reactive oxygen species produced to result in effective bactericidal activity. The level of LP required for a reaction to produce the reactive oxygen species at the required concentrations was determined at 0.15 unit activity/ml (1 mM KI present). […] This embodiment of the invention suitable for the therapeutic treatment of mastitis also included beta-galactosidase to convert the lactose present in milk to glucose.

[9] = test system: Staphycoccus epidermidis central venous catheter-related biofilm; conditions: cited from earlier work; for result relative to gentamycin and vancomycin: biofilm lock therapy model; for duration of treatment after which biofilm cells were still recoverable: 10 g/L antibiotic
[10] = test system: E. coli ATCC 25922; test: hydrogen peroxide source growth inhibition assay with or without LP and KI; type: cell-based
Procedure: Aliquots (20 ml) of nutrient broth were inoculated with 10^8 cells of E. coli ATCC 25922, and 150 μl of the inoculated broth were added to wells in a 96 well growth plate. This was repeated with the inoculated broth being further supplemented with LP (37.5 μl of a 4 mg/ml solution) and KI (75 μl of a 40 mg/ml solution) to the medium.
Sources of hydrogen peroxide were added (150 μl) to well 1 and doubly diluted to well 11, but not to well 12, which acted as a control.

[11] = test system: bacterial cells; test: potency in broth growth medium containing catalase; type: cell-based; conditions: hydrogen peroxide 0.85 M only
Procedure: This embodiment is referred to as ‘KI-Dose-150’.
The potency of the doses was not reversed. A 1:1024 dilution of the doses was inhibitory in the absence of catalase, and a 1:512 dilution of the doses was inhibitory in the presence of catalase.
As a comparison, the test was performed using only hydrogen peroxide (0.85 M), both in the presence and absence of catalase.

[12] = test system: E. coli; conditions: catalase treated
Procedure: The antimicrobial properties of these compositions were tested using a doubling dilution 96-well plate growth assay-based method. An aliquot of the composition was added to 150 μl growth medium (with 1-2% glucose present) containing 10^7-8 bacterial cells, and brought to a final volume of 300 μl. The composition concentration was doubly diluted by the removal of 150 μl of the mixture and transfer to the next well containing 150 μl of identical growth medium, lacking the ROS producing components. The optical density of the medium was measured for 24 hours at 595 nm. […] Controls included wells to which none of the composition was supplemented, or wherein, one of the components was removed from the composition.
A further example of a pre-activated system was employed as follows: solutions (4 ml volumes) containing 0.85 M H2O2 plus none or 2.5 M NaCl/5 μl chloroperoxidase (˜10,000 Units/ml) were allowed incubate. The solutions were then split and either catalase treated (50 μl of a 4 mg/ml, >1,000 units/mg) or were not catalase treated. The relative antimicrobial properties of the solutions were then tested using the protocol as described in Example 1 using E. coli supplemented broth.

[13] = test system: E. coli; test: milk inoculated with E. coli, enzymatic system with Beta-galactosidase; type: cell-based; conditions: component of the four-component system in milk inoculated with E. coli
[14] = effect of milk pasteurisation heating on the enzymatic components; type: physicochemical; conditions: held 15-600 seconds; activity read by E. coli total viable counts in milk after 24 hrs at 37° C.
Procedure: An attempt was made to determine the effects of the milk pasteurisation process on the enzymatic components, which can be used to produce the reactive oxygen species of the composition of the present invention. Working concentrations of the enzymes were heated in 50 μl volumes to 72° C. and held for 15, 30, 60, 300 or 600 seconds.
Appropriate concentrations of these aliquots were then transferred to milk containing the necessary components of the system and ˜10^8 cells/ml E. coli. Total viable counts were performed after 24 hrs incubation at 37° C. This allowed the determination of whether the enzymes were still active after heating.

[15] = nutrient broth supplemented with KI and LP

NCC[C@H](O)C(=O)N[C@@H]1C[C@H](N)[C@@H](O[C@H]2O[C@H](CN)[C@@H](O)[C@H](O)[C@H]2O)[C@H](O)[C@H]1O[C@H]1O[C@H](CO)[C@@H](O)[C@H](N)[C@H]1O [Amikacin]
susceptibility of the strain to the antibiotic [1]: R | susceptibility of the strain to the antibiotic [2]: R | susceptibility of the strain to the antibiotic [3]: R | susceptibility of the strain to the antibiotic [4]: R

O=C(O)c1cn(C2CC2)c2cc(N3CCNCC3)c(F)cc2c1=O [Ciprofloxacin]
susceptibility of the strain to the antibiotic [1]: R | susceptibility of the strain to the antibiotic [3]: R | susceptibility of the strain to the antibiotic [5]: R

[I-].[K+] [Iodide, potassium iodide]
number of dilutions of the H2O2 producing sample with inhibition [6]: six | last doubling dilution with substrate level sufficient for complete inhibition [7]: 8 | level of required substrate [8]: approximately 0.5 mM

N#C[S-].[K+] [Thiocyanate, potassium thiocyanate]
number of dilutions of the H2O2 producing sample with inhibition [6]: two | last doubling dilution with substrate level sufficient for complete inhibition [7]: 9 | level of required substrate [8]: approximately 0.5 mM

NC[C@H]1O[C@H](O[C@H]2[C@H](O)[C@@H](O[C@H]3O[C@H](CO)[C@@H](O)[C@H](N)[C@H]3O)[C@H](N)C[C@@H]2N)[C@H](N)C[C@@H]1O [Tobramycin]
susceptibility of the strain to the antibiotic [1]: R | susceptibility of the strain to the antibiotic [2]: R

CC(=O)NC[C@H]1CN(c2ccc(N3CCN(C(=O)CO)CC3)c(F)c2)C(=O)O1 [eperezolid]
result relative to gentamycin and vancomycin [9]: better results

OO [hydrogen peroxide]
greatest dilution of the hydrogen peroxide source inhibitory to E. coli [10, 15]: 1:32 dilution still not inhibitory | effect of catalase on the inhibitory nature [11]: completely reverse the inhibitory nature | dilutions at which inhibition of the bacteria was noted [12]: no inhibition

CC(=O)NC[C@H]1CN(c2ccc(N3CCOCC3)c(F)c2)C(=O)O1 [linezolid]
result relative to gentamycin and vancomycin [9]: better results

O=C([O-])[O-].O=C([O-])[O-].OO.OO.OO.[Na+].[Na+].[Na+].[Na+] [sodium percarbonate solution, sodium percarbonate]
greatest dilution of the hydrogen peroxide source inhibitory to E. coli [10, 15]: no difference as regards inhibition | greatest dilution of the hydrogen peroxide source inhibitory to E. coli ([10]; nutrient broth without supplemented KI and LP): identical to that observed following direct H2O2 addition

CN[C@H](CC(C)C)C(=O)N[C@H]1C(=O)N[C@@H](CC(N)=O)C(=O)N[C@H]2C(=O)N[C@H]3C(=O)N[C@H](C(=O)N[C@H](C(=O)O)c4cc(O)cc(O)c4-c4cc3ccc4O)[C@H](O)c3ccc(c(Cl)c3)Oc3cc2cc(c3O[C@@H]2O[C@H](CO)[C@@H](O)[C@H](O)[C@H]2O[C@H]2C[C@](C)(N)[C@H](O)[C@H](C)O2)Oc2ccc(cc2Cl)[C@H]1O [vancomycin]
duration of treatment after which biofilm cells were still recoverable [9]: 7 days

Gentamicin
susceptibility of the strain to the antibiotic [1]: R | susceptibility of the strain to the antibiotic [2]: R | susceptibility of the strain to the antibiotic [3]: R | duration of treatment after which biofilm cells were still recoverable [9]: 10 days

Glucose oxidase
concentration sufficient to observe antibacterial activity [13]: ≥ 3.75 mg/L | glucose oxidase level required ([8]; 0.5% glucose): 2 units/ml | glucose oxidase level required ([8]; 1% glucose): 1 units/ml | glucose oxidase level required ([8]; LB broth, 2% glucose, 120 mg/L KI, 320 units LP): at least 0.5 unit glucose oxidase/ml

lactoperoxidase
enzyme activity after heating to 72° C. [14]: demonstrated activity after 300 seconds heating | concentration sufficient to observe antibacterial activity [13]: ≥ 12 mg/L | level of LP required ([8]; 1 mM KI present): 0.15 unit activity/ml
